Assay in all cases: HIV-1 protease inhibition assay
Settings in all cases: pH 4.7; 25 °C

The target of assay [1] is T1, Gag-Pol polyprotein [484-582,Q491K,I494L,I497V,V499I,E519D,I534V,R541K,D544E,Q553K,A555V,L573M] (Human immunodeficiency virus, UniProt Q9QBY3, A555V/D544E/E519D/I494L/I497V/I534V/L573M/Q491K/Q553K/R541K/V499I).
T1 construct: 484-582
The protocol:
(§1) The reaction mixture contained 2 µL of protease and 2 µL of inhibitor (or DMSO as a control) and was incubated for 20-30 min at room temperature prior to the substrate cleavage reaction. 150 µL of a 1 µM substrate were used in substrate buffer (0.1 M sodium acetate, 1 M sodium chloride, 1 mM EDTA, 1 MM DTT, 2% DMSO, and 1 mg/mL BSA with an adjusted pH of 4.7).

The target of assay [2] is T2, Gag-Pol polyprotein [484-582,Q491K,I497V,V499I,E519D,G532V,I538V,R541K,D544E,L547P,Q553K,V566A,L573M] (Human immunodeficiency virus, UniProt Q9QBY3, D544E/E519D/G532V/I497V/I538V/L547P/L573M/Q491K/Q553K/R541K/V499I/V566A).
T2 construct: 484-582
The protocol: as §1

Assay [3] deals with T3, Gag-Pol polyprotein [484-582,Q491K,I497V,V499I,E519D,R541K,D544E,L547P,Q553K,A555V,G557S,I568V,L573M,L574M] (Human immunodeficiency virus, UniProt Q9QBY3, A555V/D544E/E519D/G557S/I497V/I568V/L547P/L573M/L574M/Q491K/Q553K/R541K/V499I).
T3 construct: 484-582
The procedure:
as §1

Usually Ki stands for the dissociation constant of the complex between target and ligand, obtained from inhibition or displacement. High values mean a looser hold on the target, low ones a stronger hold on the target.

Take `CCC(CC)CN(C[C@@H](O)[C@H](Cc1ccccc1)NC(=O)O[C@H]1CO[C@H]2OCC[C@H]21)S(=O)(=O)c1ccc2ncsc2c1` [(3R,3aS,6aR)-Hexahydrofuro[2,3-b]furan-3-yl ((2S,3R)-4-(N-(2-ethylbutyl)benzo[d]thiazole-6-sulfonamido)-3-hydroxy-1-phenylbutan-2-yl)carbamate (11e)]: the Ki was determined as 0.108 nM in assay [1], 0.126 nM in assay [2] and 0.052 nM in assay [3].

Regarding `CCC(CC)CN(C[C@@H](O)[C@H](Cc1ccccc1)NC(=O)O[C@H]1CO[C@H]2OCC[C@H]21)S(=O)(=O)c1ccc(OC)cc1` [(3R,3aS,6aR)-Hexahydrofuro[2,3-b]furan-3-yl ((2S,3R)-4-(N-(2-ethylbutyl)-4-methoxyphenylsulfonamido)-3-hydroxy-1-phenylbutan-2-yl)carbamate (11b)], the Ki in assay [1] is 0.01 nM; in assay [2] it was 0.001 nM; in assay [3] it was 0.134 nM.

Regarding `CCC(CC)CN(C[C@@H](O)[C@H](Cc1ccccc1)NC(=O)O[C@H]1CO[C@H]2OCC[C@H]21)S(=O)(=O)c1ccc(N)cc1` [(3R,3aS,6aR)-Hexahydrofuro[2,3-b]furan-3-yl ((2S,3R)-4-(4-amino-N-(2-ethylbutyl)phenylsulfonamido)-3-hydroxy-1-phenylbutan-2-yl)carbamate (11a)], the Ki came to 0.062 nM in assay [1], 0.034 nM in assay [2] and 0.022 nM in assay [3].

With `CC[C@H](C)CN(C[C@@H](O)[C@H](Cc1ccccc1)NC(=O)O[C@H]1CO[C@H]2OCC[C@H]21)S(=O)(=O)c1ccc(CO)cc1` [(3R,3aS,6aR)-Hexahydrofuro[2,3-b]furan-3-yl ((2S,3R)-3-hydroxy-4-(4-(hydroxymethyl)-N-((S)-2-methylbutyl)phenylsulfonamido)-1-phenylbutan-2-yl)carbamate (10c)], the Ki in assay [1] was determined as 0.013 nM; in assay [2], 0.022 nM; in assay [3], 0.004 nM.

In the case of `CCC(CC)CN(C[C@@H](O)[C@H](Cc1ccccc1)NC(=O)O[C@H]1CO[C@H]2OCC[C@H]21)S(=O)(=O)c1ccc(CO)cc1` [(3R,3aS,6aR)-Hexahydrofuro[2,3-b]furan-3-yl ((2S,3R)-4-(N-(2-ethylbutyl)-4-(hydroxymethyl)phenylsulfonamido)-3-hydroxy-1-phenylbutan-2-yl)carbamate (11c)], the Ki was determined as 0.026 nM in assay [1], 0.005 nM in assay [2] and 0.07 nM in assay [3].

For the compound `CC[C@H](C)CN(C[C@@H](O)[C@H](Cc1ccccc1)NC(=O)O[C@H]1CO[C@H]2OCC[C@H]21)S(=O)(=O)c1ccc2ncsc2c1` [(3R,3aS,6aR)-Hexahydrofuro[2,3-b]furan-3-yl ((2S,3R)-3-hydroxy-4-(N-((S)-2-methylbutyl)benzo[d]thiazole-6-sulfonamido)-1-phenylbutan-2-yl)carbamate (10e)], the Ki turned out to be 0.025 nM in assay [1], 0.012 nM in assay [2] and 0.041 nM in assay [3].

As to `CC[C@H](C)CN(C[C@@H](O)[C@H](Cc1ccccc1)NC(=O)O[C@H]1CO[C@H]2OCC[C@H]21)S(=O)(=O)c1ccc(OC)cc1` [(3R,3aS,6aR)-Hexahydrofuro[2,3-b]furan-3-yl ((2S,3R)-3-hydroxy-4-(4-methoxy-N-((S)-2-methylbutyl)phenylsulfonamido)-1-phenylbutan-2-yl)carbamate (10b)], the Ki in assay [1] worked out at 0.103 nM; in assay [2], 0.005 nM; in assay [3] it was 0.021 nM.

As to `CC[C@H](C)CN(C[C@@H](O)[C@H](Cc1ccccc1)NC(=O)O[C@H]1CO[C@H]2OCC[C@H]21)S(=O)(=O)c1ccc(N)cc1` [(3R,3aS,6aR)-Hexahydrofuro[2,3-b]furan-3-yl ((2S,3R)-4-(4-amino-N-((S)-2-methylbutyl)phenylsulfonamido)-3-hydroxy-1-phenylbutan-2-yl)carbamate (10a)], the Ki in assay [1] was 0.006 nM; in assay [2], 0.016 nM; in assay [3] it was 0.013 nM.

With `CC[C@H](C)CN(C[C@@H](O)[C@H](Cc1ccccc1)NC(=O)O[C@H]1CO[C@H]2OCC[C@H]21)S(=O)(=O)c1ccc2c(c1)OCO2` [(3R,3aS,6aR)-Hexahydrofuro[2,3-b]furan-3-yl ((2S,3R)-3-hydroxy-4-(N-((S)-2-methylbutyl)benzo[d][1,3]dioxole-5-sulfonamido)-1-phenylbutan-2-yl)carbamate (10d)], the Ki was found to be 0.035 nM in assay [1], 0.029 nM in assay [2] and 0.099 nM in assay [3].

For the compound `CCC(CC)CN(C[C@@H](O)[C@H](Cc1ccccc1)NC(=O)O[C@H]1CO[C@H]2OCC[C@H]21)S(=O)(=O)c1ccc2c(c1)OCO2` [(3R,3aS,6aR)-Hexahydrofuro[2,3-b]furan-3-yl ((2S,3R)-4-(N-(2-ethylbutyl)benzo[d][1,3]dioxole-5-sulfonamido)-3-hydroxy-1-phenylbutan-2-yl)carbamate (11d)], the inhibitory constant (Ki) came out at 0.006 nM in assay [1], 0.034 nM in assay [2] and 0.104 nM in assay [3].

The values above are taken from BindingDB's records for doi:10.1016/j.chembiol.2013.07.014 (University of Massachusetts, 2013).
